In PMC8471380 (Molecules, 2021):

Assays:
[1] = biological target: T1, porcine liver CES (Sus scrofa, UniProt Q29550); assay: CES inhibition, 4-nitrophenyl acetate hydrolysis; type: biochemical; conditions: for inhibition at 20 µM: read-out: % of inhibition of CES with 20 µM concentration of the compound
T1 sequence (Q29550 19-566): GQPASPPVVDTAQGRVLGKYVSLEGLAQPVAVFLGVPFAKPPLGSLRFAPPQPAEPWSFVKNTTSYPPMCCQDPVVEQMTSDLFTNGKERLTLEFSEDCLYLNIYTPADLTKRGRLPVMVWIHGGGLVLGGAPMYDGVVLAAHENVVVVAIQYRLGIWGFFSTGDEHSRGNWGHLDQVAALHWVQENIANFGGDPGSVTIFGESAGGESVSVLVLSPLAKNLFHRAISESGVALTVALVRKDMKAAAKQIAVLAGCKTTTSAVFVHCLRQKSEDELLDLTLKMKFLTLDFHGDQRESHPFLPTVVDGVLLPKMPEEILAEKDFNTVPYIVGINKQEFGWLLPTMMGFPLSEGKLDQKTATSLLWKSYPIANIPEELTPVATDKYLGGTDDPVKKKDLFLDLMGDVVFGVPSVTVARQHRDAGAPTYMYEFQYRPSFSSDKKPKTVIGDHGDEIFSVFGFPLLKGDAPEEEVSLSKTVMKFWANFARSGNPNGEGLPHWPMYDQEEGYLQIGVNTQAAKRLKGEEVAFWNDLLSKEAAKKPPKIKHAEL
Experimental: (§1) Reagents blanks consisted of reaction mixtures without substrates. […] Final enzyme and substrate concentrations were 0.02 unit/mL and 1 mM, respectively. Assays were carried out with a blank containing all constituents except porcine CES to assess non-enzymatic hydrolysis. The measurements were performed on a FLUOstar OPTIMA multifunctional microplate reader (BMG LABTECH, Ortenberg, Germany). The compounds were dissolved in DMSO. The incubation mixture contained 2% (v/v) of the solvent. […] The sample of the appropriate enzyme was incubated with the test compound for 5 min, and then the residual enzymatic activity was determined. Each experiment was performed in triplicate. […] Each experiment was performed in triplicate. The IC50 values were calculated with Origin 6.1 software.

[2] = test system: tubulin and microtubule-associated proteins (Tb+MAP); assay: GTP-dependent Tb+MAP polymerization; type: biochemical, mouse; conditions: 100 µM compound; for Rate of Tb+MAP Polymerization (dA355/dt): 0.1 mM GTP, 37 °C
Description: A crude fraction of tubulin and microtubule-associated proteins (Tb+MAP) was isolated from mouse brain tissue by a polymerization–depolymerization method. The procedure of mouse euthanasia using cervical dislocation for Tb+MAP preparation is in compliance with the Guidelines for Animal Experiments, which were approved by the local bioethics committee of the IPAC RAS. The freshly dissected brain was immediately placed on ice, cleared of meninges and surface blood vessels, and washed with cold buffer A (50 mM Tris-HCl, pH 6.9 at 4 °C, 2 mM EGTA). The extracted brain tissue was homogenized under ice cooling in the same buffer using a Potter S homogenizer (Sartorius). The resulting homogenate was centrifuged at 10,000× g for 30 min on an Avanti 25 centrifuge (Beckman) using a JA-14 rotor for the precipitation of non-ruptured cells. The precipitate was discarded, and the supernatant was again centrifuged at 100,000× g for 60 min at 4 °C on an Optima MAX XP centrifuge (Beckman) using a MLA-50 rotor. The precipitate was again discarded. The protein concentration in the supernatant was determined by the Bradford assay using the Bio-Rad Protein Assay kit (Bio-Rad, Hercules, CA, USA) according to manufacturer’s instructions. The resulting supernatant was a cytosolic fraction enriched in microtubular proteins (Tb and MAP).
The Tb+MAP preparation was centrifuged at 5000× g for 10 min at 4 °C immediately before polymerization in order to remove denatured and aggregated protein molecules by precipitation. The Tb+MAP polymerization was performed at 37 °C in buffer A in the presence of 0.1 mM GTP after addition of 100 µM of test compound or the same volume of vehicle (DMSO). The protein concentration in the sample was 0.2 mg/mL. The polymerization kinetics was monitored on a Victor 3 or EnVision microplate reader (Perkin Elmer, USA) at 355 nm and the stabilized rate of polymerization after the first wave was measured (dA355/dt).

[3] = biological target: T2, ifenprodil-binding site of NMDA receptor (NR2B subunit) (Rattus norvegicus, UniProt P35439+Q00960); assay: Radioligand binding assay, [3H]ifenprodil displacement
T2 construct: from tissue; host or cells: rat hippocampus membranes
T2 sequence (Q00960 27-1482, other chains not shown): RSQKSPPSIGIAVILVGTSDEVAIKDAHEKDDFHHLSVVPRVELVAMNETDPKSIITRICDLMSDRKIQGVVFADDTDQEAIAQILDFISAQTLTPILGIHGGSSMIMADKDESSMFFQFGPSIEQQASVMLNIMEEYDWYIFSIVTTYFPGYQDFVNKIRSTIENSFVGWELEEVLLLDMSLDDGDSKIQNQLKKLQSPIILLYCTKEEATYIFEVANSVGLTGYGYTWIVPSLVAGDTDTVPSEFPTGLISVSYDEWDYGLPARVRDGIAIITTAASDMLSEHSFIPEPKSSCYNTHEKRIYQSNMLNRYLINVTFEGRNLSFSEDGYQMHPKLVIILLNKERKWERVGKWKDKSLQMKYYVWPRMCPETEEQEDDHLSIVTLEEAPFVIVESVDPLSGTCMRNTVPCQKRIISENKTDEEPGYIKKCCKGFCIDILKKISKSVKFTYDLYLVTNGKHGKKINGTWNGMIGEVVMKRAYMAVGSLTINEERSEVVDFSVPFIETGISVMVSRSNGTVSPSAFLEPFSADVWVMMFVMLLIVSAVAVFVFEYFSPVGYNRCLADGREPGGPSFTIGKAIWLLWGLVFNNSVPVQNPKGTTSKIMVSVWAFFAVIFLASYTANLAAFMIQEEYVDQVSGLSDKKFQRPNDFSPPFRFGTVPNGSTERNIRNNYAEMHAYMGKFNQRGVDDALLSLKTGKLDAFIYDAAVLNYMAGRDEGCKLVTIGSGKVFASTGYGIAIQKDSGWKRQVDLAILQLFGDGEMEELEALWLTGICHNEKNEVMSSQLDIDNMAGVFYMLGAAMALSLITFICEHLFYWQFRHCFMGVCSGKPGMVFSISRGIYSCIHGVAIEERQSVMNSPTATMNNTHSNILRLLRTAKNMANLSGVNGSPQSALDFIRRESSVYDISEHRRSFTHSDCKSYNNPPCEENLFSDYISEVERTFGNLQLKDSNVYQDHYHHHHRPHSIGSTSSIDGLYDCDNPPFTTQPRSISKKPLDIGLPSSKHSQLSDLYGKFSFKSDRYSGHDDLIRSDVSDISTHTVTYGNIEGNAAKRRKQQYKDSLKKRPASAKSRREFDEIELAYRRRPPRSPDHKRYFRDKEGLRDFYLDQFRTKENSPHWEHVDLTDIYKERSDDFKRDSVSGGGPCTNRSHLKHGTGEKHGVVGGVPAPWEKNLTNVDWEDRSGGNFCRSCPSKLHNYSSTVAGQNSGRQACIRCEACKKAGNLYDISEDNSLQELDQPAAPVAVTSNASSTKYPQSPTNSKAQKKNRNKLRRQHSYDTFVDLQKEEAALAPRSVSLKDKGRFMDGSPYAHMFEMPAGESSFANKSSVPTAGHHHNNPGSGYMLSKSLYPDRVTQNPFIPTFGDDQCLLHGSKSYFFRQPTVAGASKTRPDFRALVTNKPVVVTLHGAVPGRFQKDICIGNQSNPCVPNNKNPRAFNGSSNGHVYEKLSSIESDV
Experimental: (§2) The effect of the test compounds on radioligand binding to NMDA receptors was evaluated by a modified method, as previously reported [83]. The following two radioligands were used: [^3H] […] A hippocampal membrane preparation for the radioligand binding assay was made as described previously [86, 87]. The obtained membrane pellet was resuspended in a working buffer (5 mM HEPES/4.5 mM Tris, pH 7.6 at 4 °C) in a ratio of 1:5 and stored in liquid nitrogen. The reaction mixture (the final volume was 0.5 mL) contained the working buffer (200 μL), a 50 nM radioligand solution (50 μL) and the membrane suspension (250 μL). The nonspecific binding was evaluated in the presence of 1 mM of the unlabeled ligand (50 μL).
(§3) For the binding assay, the reaction mixture was incubated at room temperature for 2 h. After the incubation, the samples were filtered through GF/B glass fiber filters (Whatman), washed with the working buffer, dried and transferred to scintillation vials. Then the scintillation fluid (5 mL), which is composed of diphenyloxazole (PPO) (4 g) and bis(5-phenyl-2-oxazolyl)benzene (POPOP) (0.2 g) in toluene (1 L) were added to the vials.
(§4) The effect of the test compounds on the binding of [^3H] […] The values of Ki were calculated according to a previously described method [88].

[4] = biological target: T3, MK-801-binding (intrachannel) site of NMDA receptor (Rattus norvegicus, UniProt P35439); assay: Radioligand binding assay, [3H]MK-801 displacement
T3 construct: from tissue; host or cells: rat hippocampus membranes
Experimental: as §2, §3, §4

[5] = biological target: T4, human erythrocyte AChE (Homo sapiens, UniProt P22303); assay: biochemical; conditions: mean ± SEM, n = 3; for IC50: 5 min incubation
T4 construct: commercial human erythrocyte AChE; purchased Sigma; host or cells: human erythrocytes
T4 sequence (P22303 32-617 isoform P22303-2 limits assumed): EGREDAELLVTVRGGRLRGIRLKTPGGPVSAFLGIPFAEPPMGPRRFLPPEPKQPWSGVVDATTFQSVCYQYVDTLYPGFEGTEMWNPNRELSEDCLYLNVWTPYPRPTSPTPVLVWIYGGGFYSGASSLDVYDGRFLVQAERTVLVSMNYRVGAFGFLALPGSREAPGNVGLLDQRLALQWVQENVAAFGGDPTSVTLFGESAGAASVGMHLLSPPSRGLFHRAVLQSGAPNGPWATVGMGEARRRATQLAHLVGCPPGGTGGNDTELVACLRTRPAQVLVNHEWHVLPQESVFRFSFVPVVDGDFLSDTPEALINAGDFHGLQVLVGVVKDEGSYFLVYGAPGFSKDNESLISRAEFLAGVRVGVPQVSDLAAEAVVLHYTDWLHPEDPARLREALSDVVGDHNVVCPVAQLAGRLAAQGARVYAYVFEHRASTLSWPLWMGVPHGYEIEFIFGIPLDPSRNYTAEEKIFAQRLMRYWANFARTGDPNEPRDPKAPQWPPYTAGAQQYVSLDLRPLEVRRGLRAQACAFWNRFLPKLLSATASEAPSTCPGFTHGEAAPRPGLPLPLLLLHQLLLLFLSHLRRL

[6] = test system: isolated rat liver mitochondria; assay: Ca2+-induced mitochondrial swelling (MPT pore opening); type: biochemical; conditions: 30 µM compound; 12.5 µM Ca2+; 10 mM glutamate, 2 mM malate, 10 mM succinate; percentage relative to the reference compound
Experimental: Experiments were performed using outbred male rats weighing 200–220 g. The animals were housed under standard vivarium conditions in a normal day/night cycle and had ad libitum access to water and food. The procedure of rat euthanasia using carbon dioxide (CO2) inhalation for mitochondria preparation is in compliance with the Guidelines for Animal Experiments, which were approved by the local bioethics committee of the IPAC RAS.
Rat liver mitochondria were isolated by conventional differential centrifugation. Membrane potential of rat liver mitochondria was measured using the potential-sensitive fluorescent probe Safranine A on a Victor 3 multilabel plate reader (Perkin Elmer, Waltham, MA, USA). The fluorescence was recorded at λex = 485 nm and λem = 590 nm. Mitochondrial swelling was measured by spectrophotometry in 96-well clear bottom plates on a Victor 3 microplate reader (Perkin Elmer, Waltham, MA, USA) at 620 nm; CaCl2 was added to induce mitochondrial swelling (MPT opening).

[7] = biological target: T5, PAS of EeAChE (Electrophorus electricus, UniProt O42275); type: binding; conditions: 20 µM compound; 7 µM EeAChE, 8 µM propidium iodide; mean ± SEM, n = 3
T5 construct: AChE from Electrophorus electricus (EeAChE, type VI-S, lyophilized powder); purchased Sigma-Aldrich type VI-S; host or cells: Electrophorus electricus tissue
T5 sequence (O42275 24-633): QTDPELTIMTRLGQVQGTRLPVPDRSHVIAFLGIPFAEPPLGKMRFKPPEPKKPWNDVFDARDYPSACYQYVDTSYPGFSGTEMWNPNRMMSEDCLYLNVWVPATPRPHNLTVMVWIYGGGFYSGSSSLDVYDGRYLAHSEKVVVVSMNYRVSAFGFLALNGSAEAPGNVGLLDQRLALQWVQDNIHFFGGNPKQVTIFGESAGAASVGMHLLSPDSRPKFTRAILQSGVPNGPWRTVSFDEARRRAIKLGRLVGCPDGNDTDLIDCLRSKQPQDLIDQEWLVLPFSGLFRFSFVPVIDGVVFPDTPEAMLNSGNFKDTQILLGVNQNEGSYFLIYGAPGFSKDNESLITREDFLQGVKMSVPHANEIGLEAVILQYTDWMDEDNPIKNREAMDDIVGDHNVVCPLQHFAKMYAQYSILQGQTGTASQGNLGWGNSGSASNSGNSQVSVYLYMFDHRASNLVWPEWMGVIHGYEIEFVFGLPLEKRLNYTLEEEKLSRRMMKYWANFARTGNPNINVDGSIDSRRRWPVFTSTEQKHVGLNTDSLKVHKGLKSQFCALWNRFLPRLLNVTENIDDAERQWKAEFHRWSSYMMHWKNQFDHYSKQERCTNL
Experimental: The compounds were evaluated as potential inhibitors of proaggregation activity of AChE by measuring the displacement of propidium iodide from the PAS of the enzyme [53] using a fluorescence method [28]. AChE from Electrophorus electricus (EeAChE, type VI-S, lyophilized powder, Sigma-Aldrich, St. Louis, MO, USA) was used for consistency with our previous studies [8, 13, 63, 74]. The fluorescence intensity of propidium iodide bound to AChE increases several-fold. A decrease in the fluorescence intensity in the presence of the test compounds is indicative of their ability to bind to the AChE PAS and, correspondingly, to inhibit β-amyloid aggregation.
EeAChE (7 µM) was incubated with 20 µM of the test compound in 1 mM Tris-HCl buffer, pH 8.0, at 25 °C for 15 min. Then a solution of propidium iodide was added (final concentration 8 µM), the mixture was incubated for 15 min, and the fluorescence spectrum was recorded (excitation at 530 nm and emission at 600 nm). […] The blank contained propidium iodide at the same concentration in 1 mM Tris-HCl buffer, pH 8.0 at 25 °C. The measurements were performed in triplicate on a FLUOstar OPTIMA multifunctional microplate reader.
The degree of displacement of propidium iodide from the PAS of AChE (% displacement) was calculated by the equation:% displacement = 100 − (IFAChE + Propidium + inhibitor/IFAChE + Propidium) × 100, where IFAChE + Propidium is the fluorescence intensity of propidium iodide bound to EeAChE in the absence of the test compound (taken as 100%), and IFAChE + Propidium + inhibitor is the fluorescence intensity of propidium iodide bound to EeAChE in the presence of the test compound.

[8] = biological target: T6, equine serum BChE (Equus caballus, UniProt P81908); assay: biochemical; conditions: 5 min incubation; mean ± SEM, n = 3
T6 construct: equine serum BChE; purchased Sigma; host or cells: equine serum
T6 sequence (P81908 whole entry): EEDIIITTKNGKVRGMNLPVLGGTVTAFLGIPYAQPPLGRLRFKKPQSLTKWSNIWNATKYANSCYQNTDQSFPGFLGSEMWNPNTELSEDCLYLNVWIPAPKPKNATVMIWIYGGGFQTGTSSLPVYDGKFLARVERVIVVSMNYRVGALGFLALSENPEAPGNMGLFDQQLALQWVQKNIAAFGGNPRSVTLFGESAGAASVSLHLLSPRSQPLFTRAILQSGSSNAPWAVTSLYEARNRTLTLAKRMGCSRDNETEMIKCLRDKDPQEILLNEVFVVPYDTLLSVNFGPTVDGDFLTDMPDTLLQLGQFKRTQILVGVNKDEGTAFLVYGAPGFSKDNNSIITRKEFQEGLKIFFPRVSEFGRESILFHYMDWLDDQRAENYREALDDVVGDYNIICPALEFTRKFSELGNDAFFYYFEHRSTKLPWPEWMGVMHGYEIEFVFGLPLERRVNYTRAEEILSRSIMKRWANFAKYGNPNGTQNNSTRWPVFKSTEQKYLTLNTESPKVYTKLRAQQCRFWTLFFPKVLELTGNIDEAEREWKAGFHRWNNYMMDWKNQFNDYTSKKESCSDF
Experimental: as §1

Structure (SMILES) | IC50 ([1]; 5 min incubation, mean ± SEM, n = 3) [µM] | Rate of Tb+MAP Polymerization (dA355/dt) [2] [%] | Ki [3] [µM] | Ki [4] [µM] | inhibition at 20 µM ([5]; read-out: % of inhibition of AChE with 20 µM concentration of the compound, 20 µM compound) [%] | inhibition at 20 µM [1] [%] | Rate of Ca2+-Induced Mitochondrial Swelling (dA620/dt) [6] [%] | % of Displacement of Propidium Iodide from the PAS of EeAChE [7] [%] | IC50 [8] [µM] | IC50 [5] [µM] | Increase of the rate of Tb+MAP polymerization, factor [2]
O=[N+]([O-])c1ccc(OP(=O)(O)Oc2ccc([N+](=O)[O-])cc2)cc1 [BNPP, bis-4-nitrophenyl phosphate, reference compound] | 1.8 ± 0.11 |  |  |  |  |  |  |  |  |  | 
CN1CCc2c(c3ccccc3n2CCNC23CC4CC(C)(CC(C)(C4)C2)C3)C1.Cl.Cl [Compound 4a, 3,5-Dimethyl-N-(2-(2-methyl-3,4-dihydro-1H-pyrido[4,3-b]indol-5(2H)-yl)ethyl)-adamantane-1-amine dihydrochloride] |  | 126 ± 9 | 1.7 ± 0.2 | 1.9 ± 0.2 | 19.5 ± 0.3 | 15.6 ± 0.3 | 33 ± 4 | 12.5 ± 1.1 | 0.666 ± 0.037 |  | 
Cc1ccc2c(c1)c1c(n2CCNC23CC4CC(C)(CC(C)(C4)C2)C3)CCN(C)C1.Cl.Cl [Compound 4b, N-(2-(2,8-Dimethyl-3,4-dihydro-1H-pyrido[4,3-b]indol-5(2H)-yl)ethyl)-3,5-dimethyladamantane-1-amine dihydrochloride] |  | 153 ± 33 | 8.8 ± 1 | 7.9 ± 0.8 |  | 10.4 ± 0.5 | 39 ± 7 | 14.7 ± 0.9 | 5.07 ± 0.09 | 50.3 ± 3.4 | 
CN1CCc2c(c3ccccc3n2CCNC23CC4CC(CC(C4)C2)C3)C1.Cl.Cl [Compound 4d, N-(2-(2-Methyl-3,4-dihydro-1H-pyrido[4,3-b]indol-5(2H)-yl)ethyl)adamantane-1-amine dihydrochloride] |  | 162 ± 19 | 4.4 ± 0.3 | 3.3 ± 0.3 |  | 2.9 ± 0.8 | 35 ± 13 | 10.1 ± 0.9 | 2.48 ± 0.22 | 112 ± 5 | 
Cc1ccc2c(c1)c1c(n2CCNC23CC4CC(CC(C4)C2)C3)CCN(C)C1.Cl.Cl [Compound 4e, N-(2-(2,8-Dimethyl-3,4-dihydro-1H-pyrido[4,3-b]indol-5(2H)-yl)ethyl)adamantane-1-amine dihydrochloride] |  | 239 ± 21 | 8.2 ± 0.9 | 10.3 ± 1.6 |  | 2.5 ± 0.5 | 42 ± 9 | 15.1 ± 1.2 | 9.05 ± 0.8 | 63.3 ± 3.3 | 
CN1CCc2c(c3cc(F)ccc3n2CCNC23CC4CC(CC(C4)C2)C3)C1.Cl.Cl [Compound 4f, N-(2-(8-Fluoro-2-methyl-3,4-dihydro-1H-pyrido[4,3-b]indol-5(2H)-yl)ethyl)adamantane-1-amine dihydrochloride] |  | 356 ± 14 | 5.1 ± 0.5 | 5.4 ± 0.6 |  | 8.6 ± 1.7 | 42 ± 8 | 17.8 ± 1.5 | 2.53 ± 0.1 | 13.6 ± 1.3 | > 3.5
